Laboratory results taken from patent US7714014B2, “Targeting GLI proteins in human cancer by small molecules” (The Regents of the University of California, priority 2005, dated 2010).

How the values were obtained:
H460 (NSCLC) = test: Apoptosis analysis (Annexin V FITC, flow cytometry); format: cell-based, human; conditions: 3 days
Description: (§1) Apoptosis was analyzed by using an Annexin V FITC Apoptosis Detection Kit (Biosource, Camarillo, Calif.), according to the manufacturer's protocol. After treatment with different small molecule compounds at various concentrations for about 3 days, cells were harvested by trypsinization, stained and immediately analyzed by flow cytometry (FACScan; Decton Dickinson, Franklin Lake, N.J.). Early apoptotic cells with exposed phosphatidylserine but intact cell membranes will bind to Annexin V-FITC, but not propidium iodide (PI). Cells in necrotic or late apoptotic stages will be labeled with both Annexin V-FITC and PI. “% apoptotic cells” or “% apoptosis” refers to the combined early and late apoptotic cells.

H838 (NSCLC) = test: as above; format: cell-based, human; conditions: 3 days
Description: as §1

CaCO2 (colon cancer) = test: as above; format: cell-based, human; conditions: about 3 days
Description: as §1

[1] = system: GLI1- and GLI2-induced transcription in Panc4.21 pancreatic cancer cells; test: 6xGLI BS-luciferase reporter assay; format: cell-based, human; conditions: for 6xGLI BS-luciferase activity (TAFII31 co-transfected with GLI1 or GLI2): Panc4.21, 20 μM for 16-20 hours; for 6xGLI BS-luciferase activity (GLI1- or GLI2-induced): Panc4.21, 20 μM, 16-20 hours
Description: One day before transfection, cells (1×10^5) were plated in 12-well plates with growth medium without antibiotics. When cells reached 80-90% of confluence they were co-transfected using 0.5 μg of each promoter construct in pGL3Basic vector and 0.025 μg pRL-TK Vector (Promega; Madison, Wis.) containing Renilla Luciferase as an internal control for the transformation efficiency. Lipofectamine 2000™ (Invitrogen Life Technologies) was used to mediate transfection for about 6 hours. […] Briefly, cells were lysed in a lysis buffer and Firefly and Renilla Luciferase activities in cells of each well, were measured using Dual-Luciferase Assay System (Promega) and an illuminometer. The measured luciferase activities were normalized to pRL-TK Vector activity and were given relative to the basal activity of empty pGL3-Basic Vector, which was set to unity. The data shown represent mean values (±S.D.). All measurements were performed in triplicate and repeated in at least three independent experiments. The human Wnt-2 promoter-luciferase construct, the human SOCS3 promoter-Luciferase construct and the human Gremlin promoter-luciferase construct were cloned and characterized in the laboratory of Dr. Jablons at the University of California, San Francisco (San Francisco, Calif.; He et al., Biochem Biophy Res Comm, 2003; and unpublished data). The 6GLI-TKO-luciferase construct (containing 6 repeats of consensus GLI DNA binding sequence) was kindly provided by Dr. Matthias Hebrok's laboratory at the University of California, San Francisco (San Francisco, Calif.).
To further examine the specificity of the small molecule compounds FN1-5 and FN1-8 to inhibit Hh/Gli signaling pathways, GLI-dependent transcription in the absence and presence of these compounds was also determined in pancreatic cancer cells.
This finding also provides a method for inhibiting GLI1- and GLI2-dependent transcription in a cell.
The TAFII31 expression plasmid contained the full-length TAFII31 cDNA generated by PCR cloned into the EcoRI (5′) and BamHI (3′) sites of a mammalian expression vector containing a c-Myc tag (pCDNA3.1 (−)B. The sequence of TAFII31 corresponds to GenBank Accession No. U25112.

[2] = system: human esophageal cancer cell lines SEG-1, TE-7, BIC-1, and OE21; test: Cell survival assay (crystal violet); format: cell-based; conditions: for cell killing: 50 μM
Description: (§2) Typically, the small molecule compounds of the present invention were dissolved in DMSO at a concentration of 30 mM. The small molecule compounds were then tested under cell culture conditions at different concentrations ranging from 0, 10, 30, 50, to 100 uM. To determine cell survival after treatment, the cells were incubated with the small molecule compounds in 6-well plates for about 3 days. After removal of the cell culture medium, 1-ml of 0.5% crystal violet solution (prepared in 20% ethanol and 20% methanol) was added to stain the cells for 5 min. Then the crystal violet solution was rinsed clean with tap water. Cell survival was estimated based on the density of crystal stained plates.
The cell-based cytotoxicity assay described herein was used to determine the effect of small molecule compounds FN1-5 and FN1-8 in the human esophageal cancer cell lines SEG-1, TE-7, BIC-1, and OE21. Viability of these cells was analyzed after treatment with 10, 30 and 50 μM FN1-5 or FN1-8.

melanoma cell line LOX = test: Cell survival assay (crystal violet); format: cell-based, human; conditions: for cell killing effect: 3 days
Description: as §2
The effect of small molecule compounds FN1-5, FN1-8, FN1-7, FN1-9U, and FN1-9S was tested using a cytotoxicity assay and the melanoma cell line LOX. LOX cells were plated in 6-well plates and incubated with 100 μM of each compound (stocks were dissolved in DMSO at 30 mM) for 3 days, as described herein. […] Live cells were stained by 0.5% crystal violet.
Cell killing was also tested using human melanoma cell line LOX and different doses of the small molecule compounds FN1-5 and FN1-8. LOX cells were plated in 6-well plates and incubated with 10, 30, and 50 μM of each compound for 3 days, as described herein.

[3] = system: human sarcoma cell lines MG63 and MNNG; test: Cell survival assay (crystal violet); format: cell-based; conditions: FN1-8 at 50 μM; 10, 30 and 50 μM tested
Description: as §2
The cell-based cytotoxicity assay described herein was used to determine the effect of small molecule compounds FN1-5 and FN1-8 in the human sarcoma cell lines MG63 and MNNG. Viability of these cells was analyzed after treatment with 10, 30 and 50 μM FN1-5 or FN1-8.

[4] = system: L3.6s1 (pancreatic cancer); test: Apoptosis analysis (Annexin V FITC, flow cytometry); format: cell-based, human; conditions: 3 days
Description: as §1
(§3) Flow cytometry was also used to examine apoptosis induced by molecule compounds FN1-5 and FN1-8 in the human pancreatic cancer cell lines L3.6sl, Panc4.21, BxPC3, and CFPAC-1 cells. […] For example, app.

[5] = system: CFPAC-1 (pancreatic cancer); test: as above; format: cell-based, human; conditions: 3 days
Description: as §1, §3

[6] = system: Panc4.21 (pancreatic cancer); test: as above; format: cell-based, human; conditions: 3 days
Description: as §1, §3

[7] = system: BxPC3 (pancreatic cancer); test: as above; format: cell-based, human; conditions: 3 days
Description: as §1, §3

| SMILES | % of apoptotic cells (H460 (NSCLC); H460, 30 μM) | % of apoptotic cells (H460 (NSCLC); H460, 50 μM) | % of apoptotic cells (H838 (NSCLC); H838, 30 μM) | % of apoptotic cells (H838 (NSCLC); H838, 50 μM) | % of apoptotic cells (CaCO2 (colon cancer); CaCO2, 30 μM) | % of apoptotic cells (CaCO2 (colon cancer); CaCO2, 50 μM) | 6xGLI BS-luciferase activity (TAFII31 co-transfected with GLI1 or GLI2) [1] | 6xGLI BS-luciferase activity (GLI1- or GLI2-induced) [1] | cell killing [2] | cell killing effect (melanoma cell line LOX; 50 μM) | cell killing effect (melanoma cell line LOX; 100 μM) | cell killing [3] | % of apoptotic cells ([4]; L3.6s1, 30 μM) | % of apoptotic cells ([4]; L3.6s1, 50 μM) | % of apoptotic cells ([5]; CFPAC-1, 30 μM) | % of apoptotic cells ([5]; CFPAC-1, 50 μM) | % of apoptotic cells ([6]; Panc4.21, 30 μM) | % of apoptotic cells ([6]; Panc4.21, 50 μM) | % of apoptotic cells ([7]; BxPC3, 30 μM) | % of apoptotic cells ([7]; BxPC3, 50 μM) | other results |
| --- | --- | --- | --- | --- | --- | --- | --- | --- | --- | --- | --- | --- | --- | --- | --- | --- | --- | --- | --- | --- | --- |
| O=C(NCCCCCO)C1C(c2ccccc2)=NN(c2ccccc2)C1c1ccccc1 (stereo not shown) [FN1-5, N-(5-Hydroxypentyl)-1,3,5-triphenyl-4,5-dihydro-pyrazole-4-carboxyamide] | 11.9% | 15.7% | 14.2% | 20.0% | 19.8% | 30.3% | significantly reduced | significantly reduced level of luciferase activity | dramatic cell killing | Dramatic cell killing effect | dramatic cell killing effect | No significant cell killing | 27.5% | 44.8% | 17.4% | 30.6% | 9.3% | 10.3% | 11.2% | 30.0% | % of apoptotic cells (CaCO2 (colon cancer); CaCO2, 10 μM): 8.2%; apoptosis induction ([6]; Panc4.21, 30 and 50 μM): did not seem to induce apoptosis |
| O=C(NCCc1ccc(O)cc1)C1C(c2ccccc2)=NN(c2ccccc2)C1c1ccccc1 (stereo not shown) [FN1-8, N-(2-(4-Hydroxyphenyl)ethyl)-1,3,5-triphenyl-4,5-dihydro-pyrazole-4-carboxyamide] | 12.1% | 75.2% | 18.3% | 82.3% | 19.9% | 39.4% | significantly reduced | significantly reduced level of luciferase activity | dramatic cell killing | Dramatic cell killing effect | dramatic cell killing effect | dramatic cell killing | 25.1% | 45.7% | 15.0% | 19.8% | 10.6% | 23.4% | 20.4% | 77.4% | % of apoptotic cells (H838 (NSCLC); H838, 10 μM): 10.6%; cell killing potency compared with FN1-5 [2]: more potent; cell killing potency compared with FN1-5 (melanoma cell line LOX; compared at 30 μM): more potent than FN1-5; % of apoptotic cells ([4]; L3.6s1, 10 μM): 12.8%; % of apoptotic cells ([5]; CFPAC-1, 10 μM): 15.4%; % of apoptotic cells ([6]; Panc4.21, 10 μM): 11.2%; % of apoptotic cells ([7]; BxPC3, 10 μM): 11.4% |
